Source: ChEMBL document CHEMBL4130363, “Synthesis and pharmacological evaluation of benzamide derivatives as potent and selective sigma-1 protein ligands” (Eur J Med Chem, 2017)

Legend:
Type in all cases: functional
[1] = biological target: Adenosine receptor A2a (Homo sapiens) (UniProt P29274); assay: Agonist activity at recombinant human adenosine A2A receptor assessed as induction of cAMP levels at 10 uM by HTRF assay relative to agonist
[2] = biological target: T1, Alpha-1A adrenergic receptor (Homo sapiens) (UniProt P35348); assay: Antagonist activity at recombinant human alpha-1a adrenergic receptor assessed as inhibition of agonist-induced […] reporter based assay
T1 sequence (whole entry): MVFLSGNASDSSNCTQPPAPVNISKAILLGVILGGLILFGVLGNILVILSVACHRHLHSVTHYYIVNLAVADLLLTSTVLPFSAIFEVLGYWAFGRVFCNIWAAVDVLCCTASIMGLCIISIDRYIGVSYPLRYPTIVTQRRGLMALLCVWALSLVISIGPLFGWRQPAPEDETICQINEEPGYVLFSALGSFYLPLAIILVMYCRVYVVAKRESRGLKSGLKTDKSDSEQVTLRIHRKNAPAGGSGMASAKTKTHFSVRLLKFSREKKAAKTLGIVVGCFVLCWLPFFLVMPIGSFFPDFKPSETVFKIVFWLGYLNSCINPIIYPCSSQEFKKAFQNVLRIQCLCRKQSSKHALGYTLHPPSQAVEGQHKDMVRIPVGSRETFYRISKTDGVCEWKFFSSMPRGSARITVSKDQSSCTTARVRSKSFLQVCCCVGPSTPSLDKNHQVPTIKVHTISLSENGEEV

[3] = biological target: D(1A) dopamine receptor (Homo sapiens) (UniProt P21728); assay: Agonist activity at recombinant human dopamine D1 receptor assessed as induction of cAMP levels at 10 uM by HTRF assay relative to agonist
Sequence of D(1A) dopamine receptor (Homo sapiens) (P21728 whole entry): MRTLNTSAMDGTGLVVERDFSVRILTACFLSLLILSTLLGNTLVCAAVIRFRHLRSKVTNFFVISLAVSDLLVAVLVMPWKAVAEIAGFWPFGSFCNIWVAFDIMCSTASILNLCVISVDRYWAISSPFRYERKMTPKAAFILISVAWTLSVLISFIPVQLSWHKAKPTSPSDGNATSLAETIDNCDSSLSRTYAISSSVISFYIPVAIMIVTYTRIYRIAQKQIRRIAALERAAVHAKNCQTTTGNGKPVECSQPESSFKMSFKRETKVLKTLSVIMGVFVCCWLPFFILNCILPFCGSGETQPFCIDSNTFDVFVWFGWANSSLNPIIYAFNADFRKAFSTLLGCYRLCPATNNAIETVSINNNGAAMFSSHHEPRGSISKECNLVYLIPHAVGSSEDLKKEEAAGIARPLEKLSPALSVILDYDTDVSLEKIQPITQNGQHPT

[4] = biological target: T2, Endothelin-1 receptor (Homo sapiens) (UniProt P25101); assay: Agonist activity at recombinant human ETA receptor at 10 uM by aequorin reporter based assay relative to agonist
T2 sequence (whole entry): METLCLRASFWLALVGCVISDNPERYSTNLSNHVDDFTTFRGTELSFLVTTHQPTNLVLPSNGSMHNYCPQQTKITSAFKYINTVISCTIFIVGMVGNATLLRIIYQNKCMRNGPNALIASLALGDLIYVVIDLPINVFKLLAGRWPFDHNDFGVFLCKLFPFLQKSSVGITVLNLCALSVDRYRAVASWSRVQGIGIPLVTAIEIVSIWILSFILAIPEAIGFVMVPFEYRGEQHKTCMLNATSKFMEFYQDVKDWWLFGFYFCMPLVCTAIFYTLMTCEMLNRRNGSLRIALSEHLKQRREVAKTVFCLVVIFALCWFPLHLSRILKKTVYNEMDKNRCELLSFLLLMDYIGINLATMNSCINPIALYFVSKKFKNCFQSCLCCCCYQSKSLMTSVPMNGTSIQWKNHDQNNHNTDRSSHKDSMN

[5] = biological target: T3, Muscarinic acetylcholine receptor M2 (Homo sapiens) (UniProt P08172); assay: Agonist activity at recombinant human muscarinic M2 receptor at 10 uM by GTPgamma[35S] binding-based assay relative to agonist
T3 sequence (whole entry): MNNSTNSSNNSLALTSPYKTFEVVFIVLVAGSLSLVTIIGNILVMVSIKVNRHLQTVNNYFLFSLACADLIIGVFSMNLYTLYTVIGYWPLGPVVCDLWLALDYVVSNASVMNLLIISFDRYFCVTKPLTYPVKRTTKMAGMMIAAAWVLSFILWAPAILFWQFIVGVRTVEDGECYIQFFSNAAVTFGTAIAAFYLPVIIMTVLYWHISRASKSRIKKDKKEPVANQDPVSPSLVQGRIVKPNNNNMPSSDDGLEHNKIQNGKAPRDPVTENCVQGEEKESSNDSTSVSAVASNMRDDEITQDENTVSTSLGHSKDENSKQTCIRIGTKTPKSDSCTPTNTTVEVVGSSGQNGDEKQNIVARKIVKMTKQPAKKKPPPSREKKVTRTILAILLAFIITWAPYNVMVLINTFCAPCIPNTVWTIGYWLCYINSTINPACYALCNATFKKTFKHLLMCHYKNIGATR

[6] = biological target: Muscarinic acetylcholine receptor M3 (Homo sapiens) (UniProt P20309); assay: Agonist activity at recombinant human muscarinic M3 receptor at 10 uM by aequorin reporter based assay relative to agonist
Sequence of Muscarinic acetylcholine receptor M3 (Homo sapiens) (P20309 whole entry, looked up): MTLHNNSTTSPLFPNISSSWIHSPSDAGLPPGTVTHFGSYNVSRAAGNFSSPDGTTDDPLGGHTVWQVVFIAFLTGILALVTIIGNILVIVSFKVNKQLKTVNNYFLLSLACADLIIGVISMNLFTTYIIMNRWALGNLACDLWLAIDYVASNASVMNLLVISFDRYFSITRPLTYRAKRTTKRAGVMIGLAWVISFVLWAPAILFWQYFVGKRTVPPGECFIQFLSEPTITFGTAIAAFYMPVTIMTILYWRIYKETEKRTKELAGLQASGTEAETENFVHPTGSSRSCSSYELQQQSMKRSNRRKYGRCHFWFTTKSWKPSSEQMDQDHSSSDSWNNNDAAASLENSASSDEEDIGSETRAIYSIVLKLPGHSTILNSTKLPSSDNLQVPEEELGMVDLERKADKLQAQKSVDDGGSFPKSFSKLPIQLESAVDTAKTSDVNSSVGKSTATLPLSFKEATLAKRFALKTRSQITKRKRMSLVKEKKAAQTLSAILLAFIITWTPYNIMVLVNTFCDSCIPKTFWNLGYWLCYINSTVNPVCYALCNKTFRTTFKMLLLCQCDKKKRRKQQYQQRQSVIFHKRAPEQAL

[7] = biological target: Muscarinic acetylcholine receptor M3 (Homo sapiens) (UniProt P20309); assay: Antagonist activity at recombinant human muscarinic M3 receptor assessed as inhibition of agonist-induced effect at 10 uM by aequorin reporter based assay
[8] = biological target: T4, Substance-K receptor (Homo sapiens) (UniProt P21452); assay: Agonist activity at recombinant human NK2R assessed at 10 uM by aequorin reporter based assay relative to agonist
T4 sequence (whole entry): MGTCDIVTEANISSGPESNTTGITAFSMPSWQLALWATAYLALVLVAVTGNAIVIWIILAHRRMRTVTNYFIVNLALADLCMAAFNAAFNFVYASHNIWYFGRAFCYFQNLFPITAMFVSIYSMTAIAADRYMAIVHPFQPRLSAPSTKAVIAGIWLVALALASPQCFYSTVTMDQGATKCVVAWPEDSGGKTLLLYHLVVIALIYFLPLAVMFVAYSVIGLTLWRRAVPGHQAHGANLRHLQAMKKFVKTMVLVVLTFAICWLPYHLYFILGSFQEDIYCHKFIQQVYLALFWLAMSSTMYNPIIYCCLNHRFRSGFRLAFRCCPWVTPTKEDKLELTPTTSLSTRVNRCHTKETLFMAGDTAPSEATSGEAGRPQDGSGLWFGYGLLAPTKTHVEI

[9] = biological target: T4, Substance-K receptor (Homo sapiens); assay: Antagonist activity at recombinant human NK2R assessed as inhibition of agonist-induced effect at 10 uM by aequorin reporter based assay
[10] = biological target: Delta-type opioid receptor (Homo sapiens) (UniProt P41143); assay: Agonist activity at recombinant human delta-type opioid receptor at 10 uM by GTPgamma[35S] binding-based assay relative to agonist
Sequence of Delta-type opioid receptor (Homo sapiens) (P41143 whole entry): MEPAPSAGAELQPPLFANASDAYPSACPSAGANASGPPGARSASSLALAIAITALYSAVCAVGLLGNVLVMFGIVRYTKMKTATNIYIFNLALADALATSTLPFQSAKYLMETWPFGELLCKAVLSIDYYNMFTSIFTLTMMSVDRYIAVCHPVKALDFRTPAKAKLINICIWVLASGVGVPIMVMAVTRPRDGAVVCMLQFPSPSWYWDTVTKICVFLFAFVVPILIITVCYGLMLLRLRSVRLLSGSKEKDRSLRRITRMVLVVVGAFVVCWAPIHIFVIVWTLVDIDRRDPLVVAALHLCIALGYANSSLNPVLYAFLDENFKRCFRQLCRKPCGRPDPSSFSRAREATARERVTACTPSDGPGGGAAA

[11] = biological target: Somatostatin receptor type 4 (Homo sapiens) (UniProt P31391); assay: Agonist activity at recombinant human somatostatin receptor 4 at 10 uM by GTPgamma[35S] binding-based assay relative to agonist
Sequence of Somatostatin receptor type 4 (Homo sapiens) (P31391 whole entry): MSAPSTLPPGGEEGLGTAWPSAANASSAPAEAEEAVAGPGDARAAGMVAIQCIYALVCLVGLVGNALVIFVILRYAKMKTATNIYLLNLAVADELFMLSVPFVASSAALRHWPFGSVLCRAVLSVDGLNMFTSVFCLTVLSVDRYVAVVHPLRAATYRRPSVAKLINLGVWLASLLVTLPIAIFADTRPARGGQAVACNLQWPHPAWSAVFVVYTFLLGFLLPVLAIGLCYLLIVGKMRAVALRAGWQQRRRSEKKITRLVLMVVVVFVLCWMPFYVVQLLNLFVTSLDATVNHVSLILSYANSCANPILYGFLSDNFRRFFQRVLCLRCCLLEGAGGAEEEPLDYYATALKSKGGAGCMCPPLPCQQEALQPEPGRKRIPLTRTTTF

[12] = biological target: T5, Vasoactive intestinal polypeptide receptor 1 (Homo sapiens) (UniProt P32241); assay: Agonist activity at recombinant human VPAC1 receptor at 10 uM by aequorin reporter based assay relative to agonist
T5 sequence (whole entry): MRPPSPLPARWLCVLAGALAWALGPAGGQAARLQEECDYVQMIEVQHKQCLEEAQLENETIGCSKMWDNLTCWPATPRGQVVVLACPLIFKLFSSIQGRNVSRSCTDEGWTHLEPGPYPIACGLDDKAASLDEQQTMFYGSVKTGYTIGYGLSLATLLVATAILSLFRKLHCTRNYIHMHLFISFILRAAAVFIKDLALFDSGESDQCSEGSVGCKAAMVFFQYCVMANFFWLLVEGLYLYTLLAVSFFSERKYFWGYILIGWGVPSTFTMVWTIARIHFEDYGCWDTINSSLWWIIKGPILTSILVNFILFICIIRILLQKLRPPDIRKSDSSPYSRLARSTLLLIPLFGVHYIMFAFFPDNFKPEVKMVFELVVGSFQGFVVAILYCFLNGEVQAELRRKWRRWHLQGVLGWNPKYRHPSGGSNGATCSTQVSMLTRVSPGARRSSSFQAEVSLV

Sequence of Adenosine receptor A2a (Homo sapiens) (P29274 whole entry): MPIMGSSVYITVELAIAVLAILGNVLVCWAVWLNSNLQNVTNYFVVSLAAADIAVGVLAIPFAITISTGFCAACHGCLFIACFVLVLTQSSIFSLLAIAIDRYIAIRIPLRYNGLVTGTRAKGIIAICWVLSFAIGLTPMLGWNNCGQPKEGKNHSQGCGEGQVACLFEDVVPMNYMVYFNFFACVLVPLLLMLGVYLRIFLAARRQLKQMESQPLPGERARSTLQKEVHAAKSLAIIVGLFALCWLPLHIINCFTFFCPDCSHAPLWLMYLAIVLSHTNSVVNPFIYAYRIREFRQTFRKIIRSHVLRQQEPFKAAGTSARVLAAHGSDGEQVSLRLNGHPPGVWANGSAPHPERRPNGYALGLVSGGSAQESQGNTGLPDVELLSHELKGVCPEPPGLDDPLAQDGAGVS

SMILES	Activity [1]	inhibition [2]	Activity [3]	Activity [4]	Activity [5]	Activity [6]	inhibition [7]	Activity [8]	inhibition [9]	Activity [10]	Activity [11]	Activity [12]
CN(CCCNC(=O)c1cccc(Br)c1)Cc1ccccc1	-25%	97%	-5%	-1%	-11%	-2%	43%	1%	9%	-1%	-2%	-1%
CN(CCCNC(=O)c1ccc(Br)cc1)Cc1ccccc1	-7%	93%	-7%	1%	-3%	1%	11%	0%	7%	1%	-4%	0%
COc1cccc(C(=O)NCCCN(C)Cc2ccccc2)c1	5%	82%	8%	0%	-1%	0%	2%	0%	19%	-4%	-4%	0%
CN(CCNC(=O)c1ccc(Cl)cc1)Cc1ccccc1	-22%	96%	-4%	-1%	-5%	0%	35%	1%	6%	1%	1%	-1%
CCCc1ccc(C(=O)NCCCN(C)Cc2ccccc2)cc1	-19%	96%	-2%	-1%	-9%	-2%	41%	0%	5%	1%	-1%	-1%
CN(CCCNC(=O)c1ccc(C(F)(F)F)cc1)Cc1ccccc1	-22%	79%	-4%	-1%	-9%	-2%	36%	0%	6%	3%	-5%	0%
CN(CCCNC(=O)c1ccc([N+](=O)[O-])cc1)Cc1ccccc1	-11%	95%	-1%	-1%	-6%	-2%	30%	0%	9%	-1%	-2%	-1%
CN(CCCNC(=O)c1ccc(Cl)cc1)CCc1ccccc1	-6%	95%	-6%	-1%	-10%	-1%	40%	0%	5%	0%	15%	1%
CN(CCNC(=O)c1ccc(C#N)cc1)Cc1ccccc1	-8%	56%	9%	-1%	-3%	0%	17%	0%	29%	-2%	-1%	-1%
COc1ccc(C(=O)NCCCN(C)Cc2ccccc2)cc1	-13%	52%	4%	0%	-3%	1%	0%	0%	22%	-6%	-3%	0%
CN(CCCNC(=O)c1ccc(Cl)cc1)Cc1ccccc1	-3%	92%	-7%	0%	-9%	2%	23%	0%	18%	0%	-6%	0%
CN(CCNC(=O)c1ccc([N+](=O)[O-])cc1)Cc1ccccc1	-12%	62%	14%	-1%	-1%	0%	21%	0%	15%	0%	-1%	0%
